Structures are written as SMILES. A value given as a limit tells only on which side of the number the result lay.

For series [1] the following is noted: in benzol, standard to estimate γ; cited from earlier work.
Series [2] relates to HeLa tumor cells. Nature of the series: Cytotoxicity (antiproliferative assay) in the absence of light exposure. The conditions noted are these: for number of HeLa cells: no light, 24 hours. Type of series: cell-based. The protocol: Cytotoxicity was analyzed, considering the intensity of proliferative processes in cells, photosensitizer concentration, and dose of optical power. For each point, 3 flasks with cell monolayer were used.
The monolayer culture of HeLa tumor cells was chosen and used as the cell.
The culture of HeLa tumor cells was grown in nutrient medium 199 or in nutrient medium containing hemohydrolyzate supplemented with 10% fetal bovine serum and […] of kanamycin. […]
Flasks with light-protective cover (dark cytotoxicity) were incubated at 37.5° C. for 1 hour. The cells were washed with Hank's solution 4 times. 2.0 ml of fresh nutrient medium were added, and the cells were irradiated at the temperature of melting ice for 5, 10, 15 or 20 mins by the light flux of a “METALAZ” laser medical device (wavelength: 627.8 nm, 578.2 or 510.6 nm) or “LD 680-2000” (wavelength: 670-690 nm), depending on the wavelength of maximum spectral absorption of the studied photosensitizer, at a dose of 40 J/cm^2. After 20-24 hours, the number of tumor cell was counted in Goriaev's chamber.

For series [3], the system named is HeLa cell culture. Nature of the series: Phototoxicity (photodynamic activity), 3.5 h incubation, 3.3 joule/cm^2. In kind it is cell-based. More on the design: number of HELA cells relative to the control: unit not given here. Conditions: 3.5 hours incubation, photoexposure 3.3 joule/cm^2. On the procedure: To examine the photodynamic effects of a photosensitizer on a HeLa cell culture, the photosensitizer solution was added to the nutrient media at a final concentration of 0.1, 0.5, 1.0, 5.0 or 10 mcg/ml on day 3 after transplanting the cell culture into flasks. The flasks were wrapped with a light protecting cover, and incubated at 37° C. for 3.5 hours. Then, the cells were washed with Hank's solution, and exposed on ice by a laser medical device “LD 680-2000” (wavelength: 670-690 nm) at a dose of 3.3 joule/cm^2. After 20-24 hours, the available cell monolayer was dispersed using a 0.02%-Versene solution, and the number of tumor cells was calculated in Goriaev's chamber. For each point, 3 flasks were used.

Series [4] relates to Hela cells. Nature of the series: Accumulation in Hela cells.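 On concentration in Hela cells: measured as suspension fluorescence intensity at excitation 405 nm and emission 665 nm.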 Type of series: cell-based. The conditions noted are these: for concentration in Hela cells: 2×10^−5 M/l, 37° C. On the procedure: The cellular accumulation and the targeted delivery of the photoactive compounds were investigated using Hela cells, which is one of the numerous tumor cell types that overexpress folate receptors.
Cells were cultivated for 3 days in medium 199, and transferred to Hank's solution/medium 199 (9/1). After 3 hours, the cell were collected by trypsin treatment from the substrate and placed in Hank's solution (10^5 ? /ml). To cell suspensions, chlorin e6 conjugates were added at a concentration of 2×10^−5 M/l, and incubated at 37° C. After 1, 5, 10, 15, and 24 hours, the samples were centrifuged, the pellet was washed with the cooled Hank's solution, and transferred to Hank's solution at a concentration being equal to that in the initial suspension.

The test system of series [5] is Hela cells. Description: Competition assay with exogenous folic acid, uptake in Hela cells. Type of series: cell-based. Conditions: 4 μM/l folic acid, 24 hours. From the text: Then, the sample was centrifuged, the supernatant was taken, and the pellet was rewashed with cooled Hank's solution. The obtained pellet was again transferred into Hank's solution.
For series [6], the system named is Hela cells. Description: Phototoxicity, 24 h incubation, 1.5-15 joule/cm^2. In kind it is cell-based. Conditions: 670-690 nm. The protocol: In other experiment, the cells were incubated with photosensitizers at 37° C. for 24 hours, and irradiated by exposed on ice by a laser medical device “LD 680-2000” (wavelength of 670-690 nm) in a dose of 1.5-15 joule/cm^2.

In series [7] the test system is transporter of restored vectors (TRV). Conditions: cited from earlier work; for Km: read-out: KM (affinity of the carrier TRV).

Turning to `CCC1=C(CC)c2cc3[n-]c(cc4nc(cc5[n-]c(cc1n2)c(CC)c5CC)C(CC)=C4CC)c(CC)c3CC.[Pd+2]` [Pd(II)-octa ethyl porphyrin], the “γ of the standard” value in series [1] is “one”.

Take `C=Cc1c(C)c2cc3nc(c(CC(=O)O)c4[nH]c(cc5nc(cc1[nH]2)C(C)=C5CC)c(C)c4C(=O)O)C(CCC(=O)O)C3C` (stereo not drawn) [chlorin e6, 13-carboxy-17-[2-carboxyethyl]-15-carboxymethyl-17,18-trans-dihydro-3-vinyl-8-ethyl-2,7,12,18-tetramethylporphyrin]: the “cytotoxicity in the absence of light exposure” value in series [2] (Hela cells, 24 hr incubation) is given as “no cytotoxicity”. Moreover, in series [2] (Hela cells, 24 hr incubation, absence of light exposure), the cell survival rate entry is recorded as “about 90%”. Moreover, the “number of HeLa cells” value in series [2] (photosensitizer conc. 1 (μm)) is listed as 101.3 percentage of the control; in series [2] (photosensitizer conc. 2.5 (μm)), 99.1 percentage of the control; in series [2] (photosensitizer conc. 5.0 (μm)) it was 98.4 percentage of the control; in series [2] (photosensitizer conc. 10.0 (μm)), 95.5 percentage of the control; in series [2] (photosensitizer conc. 20.0 (μm)) it was 90.0 percentage of the control; in series [2] (photosensitizer conc. 30.0 (μm)) it was 89.7 percentage of the control. The “number of HELA cells relative to the control” value was found to be 87.1 in series [3] (0.1 mcg/ml); 83.6 in series [3] (0.5 mcg/ml); 64.7 in series [3] (1.0 mcg/ml); 19 in series [3] (5.0 mcg/ml); 3.8 in series [3] (10.0 mcg/ml). Moreover, the “time in which the majority binds with cells” value in series [4] (Hela cells) is at most 5 h. Also, the “concentration in Hela cells” value in series [4] (incubation 1 hour) worked out at 0.86 relative units/10^4 cl; in series [4] (incubation 5 hours), 1.45 relative units/10^4 cl; in series [4] (incubation 10 hours), 1.72 relative units/10^4 cl; in series [4] (incubation 15 hours), 0.81 relative units/10^4 cl; in series [4] (incubation 24 hours) it was 0.40 relative units/10^4 cl. For the same compound, in series [5], the “effect of free folic acid on uptake in Hela cells” value is on record as “no significant effect”. The “phototoxicity in survival test” value in series [6] is listed as “little phototoxicity”.

By Km is commonly meant the concentration of substrate that gives half-maximal velocity. Take `Nc1nc(O)c2nc(CNc3ccc(C(=O)N[C@@H](CCC(=O)O)C(=O)O)cc3)cnc2n1` [folic acid, N-[4(2-Amino-4-hydroxypteridin-6-ylmethylamino)benzoyl]-L(+)-glutamic acid]: the “affinity of TRV-mediated transport” value in series [7] is listed as “about 200 μM”. Moreover, the Michaelis-Menten constant (Km) in series [7] (tumor cells) is 100 to 200 µM.

As to `CN(Cc1cnc2nc(N)nc(N)c2n1)c1ccc(C(=O)N[C@@H](CCC(=O)O)C(=O)O)cc1` [methotrexate], in series [7] (tumor cells), the “maximum rate of TRV transport” value is given as 1-12 nmol/min per cellular protein (g) and the Michaelis-Menten constant (Km) is 4 to 8 µM.

These data come from US8735439B2, “Chlorin e6-folic acid conjugate, preparation method thereof, and a pharmaceutical composition for the treatment of cancer comprising the same” (Diatech Korea Co., Ltd., priority 2009, dated 2014).
